What all share (test): In vitro MMP inhibition, IC50 determination (fluorogenic substrate I)
Holding throughout (assay type): biochemical
Holding throughout (conditions): value outside parentheses

The target of one assay is T1, Human recombinant MMP-2 (Homo sapiens, UniProt P08253).
T1 construct: made in house; host or cells: MMP-2-transfected p2AHT2 cells
T1 sequence (P08253 110-660): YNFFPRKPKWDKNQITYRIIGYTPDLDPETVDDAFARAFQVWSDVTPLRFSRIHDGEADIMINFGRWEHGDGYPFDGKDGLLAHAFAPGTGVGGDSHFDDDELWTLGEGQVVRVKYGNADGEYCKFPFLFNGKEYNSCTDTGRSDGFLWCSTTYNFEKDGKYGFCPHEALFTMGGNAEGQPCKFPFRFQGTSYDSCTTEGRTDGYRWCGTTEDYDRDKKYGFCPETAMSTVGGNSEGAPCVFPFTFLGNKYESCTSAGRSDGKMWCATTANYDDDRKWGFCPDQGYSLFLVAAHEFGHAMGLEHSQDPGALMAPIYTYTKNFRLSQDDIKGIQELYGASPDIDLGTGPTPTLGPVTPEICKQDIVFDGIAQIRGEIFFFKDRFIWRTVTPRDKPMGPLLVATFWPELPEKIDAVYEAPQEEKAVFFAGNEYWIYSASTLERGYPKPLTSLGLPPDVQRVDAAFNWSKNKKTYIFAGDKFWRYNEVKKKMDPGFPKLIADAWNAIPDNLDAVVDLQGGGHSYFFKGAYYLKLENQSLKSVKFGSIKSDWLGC
In short, it runs like this: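 IC50 was derived from the concentration-dependent fall in fluorescence (ex 328, em 415 nm) on Gly-Leu cleavage of 4 μM MCA/Dpa-quenched substrate I. Assays ran at room temperature in pH 7.5 Tris/NaCl/CaCl2/Brij buffer with MMP-2 activated by trypsin or APMA; inhibitors were diluted from 1% DMSO stocks.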

In another assay the target is T2, Human recombinant MMP-14 (Homo sapiens, UniProt P50281).
T2 construct: The catalytic domain enzyme was expressed in E. coli inclusion bodies, solubilized in urea; made in house
Put shortly: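 IC50 came from reduced fluorescence (ex 328 nm, em 415 nm) as inhibitor concentration rose, with 4 μM substrate I cleaved at Gly-Leu. Room-temperature incubation in pH 7.5 Tris buffer with 10 mM CaCl2; the E. coli-expressed, refolded MMP-14 catalytic domain was activated with trypsin or APMA.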

The target of another assay is T3, Human recombinant MMP-1 (Homo sapiens, UniProt P03956).
T3 construct: made in house; host or cells: MMP-1-transfected HT-1080 cells (spent media)
T3 sequence (P03956 100-469): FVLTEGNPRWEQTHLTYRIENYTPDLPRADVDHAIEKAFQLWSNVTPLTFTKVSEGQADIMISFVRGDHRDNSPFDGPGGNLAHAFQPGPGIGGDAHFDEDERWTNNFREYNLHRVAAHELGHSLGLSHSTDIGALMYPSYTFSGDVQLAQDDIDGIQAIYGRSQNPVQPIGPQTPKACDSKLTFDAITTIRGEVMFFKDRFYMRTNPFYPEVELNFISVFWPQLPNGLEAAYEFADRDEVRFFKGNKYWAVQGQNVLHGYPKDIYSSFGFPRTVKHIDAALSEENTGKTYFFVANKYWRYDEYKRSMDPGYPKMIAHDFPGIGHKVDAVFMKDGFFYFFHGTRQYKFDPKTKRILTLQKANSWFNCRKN
Put shortly:
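Inhibitor dilutions were made in 100 mM Tris-HCl/100 mM NaCl/10 mM CaCl2 buffer, pH 7.5, and incubated at room temperature with activated proenzyme (from transfected HT-1080 media; APMA or trypsin) and 4 μM quenched methoxycoumarin peptide substrate. Loss of 415 nm fluorescence (328 nm excitation) against concentration gave IC50.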

A further assay has as its target T4, Human recombinant MMP-9 (Homo sapiens, UniProt P14780).
T4 construct: made in house; host or cells: MMP-9-transfected HT1080 cells (spent media)
Put shortly: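 Reduction in fluorescence (328 nm excitation, 415 nm emission) from cleavage of 4 μM quenched peptide substrate I, measured at room temperature against inhibitor concentration, gave IC50. Enzyme: trypsin- or APMA-activated MMP-9 purified from transfected HT1080 medium; buffer 100 mM Tris, 100 mM NaCl, 10 mM CaCl2, pH 7.5.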

A further assay concerns the target T5, Human recombinant MMP-13 (Homo sapiens, UniProt P45452).
T5 construct: made in house; host or cells: baculovirus / insect cells
Put shortly: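 Fluorescence at 415 nm (excitation 328 nm) reports Gly-Leu cleavage of 4 μM quenched methoxycoumarin peptide substrate I. Human recombinant MMP-13, activated by trypsin or APMA, was incubated at room temperature with varied inhibitor concentrations in pH 7.5 Tris/NaCl/CaCl2 buffer; IC50 derived from reduced fluorescence.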

A value given as a limit tells only on which side of the number the result lay.

T4 sequence (P14780 107-707 limits assumed): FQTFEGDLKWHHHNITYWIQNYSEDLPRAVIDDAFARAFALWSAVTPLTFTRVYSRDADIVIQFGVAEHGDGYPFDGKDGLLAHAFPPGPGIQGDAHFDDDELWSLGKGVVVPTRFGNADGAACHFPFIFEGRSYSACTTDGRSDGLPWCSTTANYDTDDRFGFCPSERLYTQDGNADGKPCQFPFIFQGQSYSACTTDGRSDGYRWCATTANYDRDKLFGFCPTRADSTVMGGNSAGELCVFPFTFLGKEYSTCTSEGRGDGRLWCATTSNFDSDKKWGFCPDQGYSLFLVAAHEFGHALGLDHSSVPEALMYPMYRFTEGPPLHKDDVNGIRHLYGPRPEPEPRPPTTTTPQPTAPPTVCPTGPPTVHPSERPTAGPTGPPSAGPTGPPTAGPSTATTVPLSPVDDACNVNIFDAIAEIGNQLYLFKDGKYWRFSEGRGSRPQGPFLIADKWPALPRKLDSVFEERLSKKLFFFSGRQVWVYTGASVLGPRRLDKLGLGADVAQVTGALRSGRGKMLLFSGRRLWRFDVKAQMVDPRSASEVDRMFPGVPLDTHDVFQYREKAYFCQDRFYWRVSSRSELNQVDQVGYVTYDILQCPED

One may read the IC50 as the concentration that inhibits the measured activity by half. Regarding `O=C(CCOc1ccc(S(=O)(=O)C2(C(=O)NO)CCOCC2)cc1)c1ccccc1` [Example 495], the IC50 at Human recombinant MMP-2 amounted to 1.9 nM; on Human recombinant MMP-14, 505 nM; at Human recombinant MMP-1, 815 nM; at Human recombinant MMP-9 it was 25.8 nM; at Human recombinant MMP-13, 1.7 nM.

On to `COc1ccc(-c2nnc(CCCOc3ccc(S(=O)(=O)C4(C(=O)NO)CCOCC4)cc3)o2)cc1` [Example 501], for which the IC50 is 184 nM on Human recombinant MMP-2; more than 10000 nM on Human recombinant MMP-14; more than 10000 nM at Human recombinant MMP-1; 7710 nM on Human recombinant MMP-9; 1.4 nM at Human recombinant MMP-13.

Consider `O=C(NO)C1(S(=O)(=O)c2ccc(OCCSc3nc4ccc(Cl)cc4o3)cc2)CCOCC1` [Example 502], for which the IC50 at Human recombinant MMP-2 was 22.7 nM; on Human recombinant MMP-14 it was 5640 nM; at Human recombinant MMP-1 it was more than 10000 nM; on Human recombinant MMP-9, 160 nM; at Human recombinant MMP-13 it was 1 nM.

With `O=C(NO)C1(S(=O)(=O)c2ccc(OCCOCc3ccccn3)cc2)CCOCC1` [Example 515], the IC50 on Human recombinant MMP-2 was 89.8 nM; on Human recombinant MMP-14 it was more than 10000 nM; at Human recombinant MMP-1, more than 10000 nM; at Human recombinant MMP-9, 154 nM; at Human recombinant MMP-13 it was 24.2 nM.

In the case of `O=C(NO)C1(S(=O)(=O)c2ccc(OCCOCc3ccncc3)cc2)CCOCC1` [Example 516], the IC50 was 41.9 nM on Human recombinant MMP-2; 9430 nM on Human recombinant MMP-14; more than 10000 nM on Human recombinant MMP-1; 120 nM on Human recombinant MMP-9; 9.55 nM on Human recombinant MMP-13.

`O=C(NO)C1(S(=O)(=O)c2ccc(OCCCOCc3ccccn3)cc2)CCOCC1` [Example 519]: the IC50 at Human recombinant MMP-2 is 170 nM; at Human recombinant MMP-14, more than 10000 nM; on Human recombinant MMP-1 it was more than 10000 nM; at Human recombinant MMP-9, 422 nM; on Human recombinant MMP-13, 2.18 nM.

Turning to `O=C(NO)C1(S(=O)(=O)c2ccc(OCCCOCc3cccnc3)cc2)CCOCC1` [Example 520], the IC50 on Human recombinant MMP-2 is 54.2 nM; at Human recombinant MMP-14 it was 4300 nM; on Human recombinant MMP-1, more than 10000 nM; on Human recombinant MMP-9 it was 36.4 nM; on Human recombinant MMP-13, 0.62 nM.

As for `O=C(NCCSc1ccc(S(=O)(=O)C2(C(=O)NO)CCOCC2)cc1)c1nc2ccccc2o1` [Example 576], the IC50 at Human recombinant MMP-2 was 233 nM; at Human recombinant MMP-14, more than 10000 nM; on Human recombinant MMP-1, more than 10000 nM; at Human recombinant MMP-9, 397 nM; at Human recombinant MMP-13, 0.3 nM.

`O=C(NO)C1(S(=O)(=O)c2ccc(OCCCc3cc(-c4ccc(F)c(F)c4)cs3)cc2)CCOCC1` [Example 580]: the IC50 on Human recombinant MMP-2 is 136 nM; on Human recombinant MMP-14, more than 10000 nM; at Human recombinant MMP-1, more than 10000 nM; on Human recombinant MMP-9, 417 nM; on Human recombinant MMP-13, 0.6 nM.

Regarding `O=C(Cc1ccsc1)NCCOc1ccc(S(=O)(=O)C2(C(=O)NO)CCOCC2)cc1` [Example 601], the IC50 at Human recombinant MMP-2 stood at 1.9 nM; on Human recombinant MMP-14, 2060 nM; on Human recombinant MMP-1, 4920 nM; on Human recombinant MMP-9, 42.6 nM; on Human recombinant MMP-13, 1.3 nM.

For the molecule `O=C(NO)C1(S(=O)(=O)c2ccc(OCCCc3cc(-c4ccc(F)cc4)cs3)cc2)CCOCC1` [Example 607], the IC50 was 45.2 nM at Human recombinant MMP-2; more than 10000 nM on Human recombinant MMP-14; more than 10000 nM at Human recombinant MMP-1; 2300 nM at Human recombinant MMP-9; 0.1 nM on Human recombinant MMP-13.

`O=C(NO)C1(S(=O)(=O)c2ccc(OCCCc3cccc(C4CCCCN4)c3)cc2)CCN(C2CC2)CC1` (stereo not shown) [Example 609]: the IC50 at Human recombinant MMP-2 was 580 nM; at Human recombinant MMP-14, more than 10000 nM; on Human recombinant MMP-1, more than 10000 nM; on Human recombinant MMP-9, 6890 nM; on Human recombinant MMP-13, 7.7 nM.

For the molecule `O=C(NO)C1(S(=O)(=O)c2ccc(OCCCSc3nc4ccccc4s3)cc2)CCN(CC2CC2)CC1` [Example 614], the IC50 was 1.8 nM on Human recombinant MMP-2; 9440 nM at Human recombinant MMP-14; more than 10000 nM on Human recombinant MMP-1; 8.5 nM at Human recombinant MMP-9; 0.7 nM on Human recombinant MMP-13.

Take `COCCN1CCC(C(=O)NO)(S(=O)(=O)c2ccc(OCCCSc3nc4ccccc4s3)cc2)CC1` [Example 615]: the IC50 on Human recombinant MMP-2 was 1.1 nM; on Human recombinant MMP-14, 6700 nM; on Human recombinant MMP-1, more than 10000 nM; at Human recombinant MMP-9 it was 3.6 nM; at Human recombinant MMP-13, 0.4 nM.

Turning to `COc1ccc(CC(=O)NCCOc2ccc(S(=O)(=O)C3(C(=O)NO)CCOCC3)cc2)cc1` [Example 616], the IC50 was determined as 5.3 nM at Human recombinant MMP-2; 1970 nM on Human recombinant MMP-14; 1580 nM on Human recombinant MMP-1; 54.8 nM on Human recombinant MMP-9; 2 nM on Human recombinant MMP-13.

With `O=C(NO)C1(S(=O)(=O)c2ccc(OCCCS(=O)(=O)NC34CC5CC(CC(C5)C3)C4)cc2)CCOCC1` [Example 645], the IC50 at Human recombinant MMP-2 was 22.9 nM; at Human recombinant MMP-14, more than 10000 nM; on Human recombinant MMP-1, 9280 nM; at Human recombinant MMP-9, 1730 nM; on Human recombinant MMP-13 it was 4.3 nM.

On to `NCc1ccc(OCCOc2ccc(S(=O)(=O)C3(C(=O)NO)CCOCC3)cc2)cc1` [Example 650], for which the IC50 is 1.1 nM on Human recombinant MMP-2; 2390 nM at Human recombinant MMP-14; 2880 nM on Human recombinant MMP-1; 2.46 nM on Human recombinant MMP-9; 2.45 nM on Human recombinant MMP-13.

On to `COC(=O)c1ccc(OCCOc2ccc(S(=O)(=O)C3(C(=O)NO)CCOCC3)cc2)cc1` [Example 651], for which the IC50 was 18.7 nM on Human recombinant MMP-2; 651 nM at Human recombinant MMP-14; more than 10000 nM at Human recombinant MMP-1; 129 nM on Human recombinant MMP-9; 1.13 nM at Human recombinant MMP-13.

`O=C(CCCOc1ccc(S(=O)(=O)C2(C(=O)NO)CCOCC2)cc1)N1CC[C@@H](c2ccccc2)[C@@H](O)C1` [Example 652]: the half-maximal inhibitory concentration (IC50) at Human recombinant MMP-2 was 76.6 nM; on Human recombinant MMP-14, more than 10000 nM; on Human recombinant MMP-1, 3670 nM; at Human recombinant MMP-9, 224 nM; on Human recombinant MMP-13, 0.95 nM.

With `O=C(NO)C1(S(=O)(=O)c2ccc(OCCOCc3ccccc3)cc2)CCOCC1` [Example 653], the IC50 on Human recombinant MMP-2 worked out at 24.9 nM; at Human recombinant MMP-14, 2510 nM; on Human recombinant MMP-1, 3920 nM; on Human recombinant MMP-9, 49.1 nM; at Human recombinant MMP-13 it was 5.58 nM.

With `CN(C(=O)CCCOc1ccc(S(=O)(=O)C2(C(=O)NO)CCOCC2)cc1)c1ccccc1` [Example 654], the IC50 at Human recombinant MMP-2 was 160 nM; at Human recombinant MMP-14, more than 10000 nM; at Human recombinant MMP-1, more than 10000 nM; at Human recombinant MMP-9 it was 970 nM; on Human recombinant MMP-13, 0.55 nM.

Take `O=C(NO)C1(S(=O)(=O)c2ccc(OCCOCC3CC3)cc2)CCOCC1` [Example 655]: the IC50 is 24.1 nM at Human recombinant MMP-2; more than 10000 nM at Human recombinant MMP-14; more than 10000 nM at Human recombinant MMP-1; 69.9 nM on Human recombinant MMP-9; 28.4 nM at Human recombinant MMP-13.

In the case of `O=C(NO)C1(S(=O)(=O)c2ccc(OCCCn3nnc(-c4ccc(OC(F)(F)F)cc4)n3)cc2)CCOCC1` [Example 656], the IC50 on Human recombinant MMP-2 was 408 nM; on Human recombinant MMP-14 it was more than 10000 nM; at Human recombinant MMP-1 it was more than 10000 nM; at Human recombinant MMP-9, 1180 nM; at Human recombinant MMP-13, 0.66 nM.

The values above are taken from patent US20040024024A1, “Aromatic sulfone hydroxamates and their use as protease inhibitors” (priority 2001, published 2004).
